≈ marks a conversion by molar mass, not a printed value.
Columns and labels:
Assay type in all cases: cell-based
[1] = tested on: S. aureus ATCC 25923 (Sa 23); assay: MIC, broth microdilution, Sa 23; details: replicates from different days separated by comma; for MIC: Staphylococcus aureus, ATCC25923, Table 1, HT series, read-out: Minimum inhibitory concentration (MIC) Sa 23; for Minimum inhibitory concentration (MIC) Sa 23: Table 1, HT series
Experimental: (§1) The broth microdilution method was utilized to determine MIC values of novel thiazole derivatives against different clinically important Gram-positive bacteria according to the guidelines outlined by the Clinical and Laboratory Standards Institute (CLSI) as reported in our recent papers.^1-5 The starting concentration of compounds for MIC determination was 64 μg/mL serially diluted down the wells and the MIC values were recorded in duplicates in three independent experiments on different days.

[2] = tested on: S. aureus ATCC 700699 (Sa 99); assay: MIC, broth microdilution, Sa 99; details: replicates from different days separated by comma; for MIC: Staphylococcus aureus, ATCC700699, Table 1, HT series, read-out: Minimum inhibitory concentration (MIC) Sa 99; for Minimum inhibitory concentration (MIC) Sa 99: Table 1, HT series
Experimental: as §1

[3] = tested on: E. faecalis ATCC 29212 (Efs 12); assay: MIC, broth microdilution, Efs 12; details: replicates from different days separated by comma; for MIC: Enterococcus faecalis, ATCC29212, Table 1, HT series, read-out: Minimum inhibitory concentration (MIC) Efs 12; for Minimum inhibitory concentration (MIC) Efs 12: Table 1, HT series
Experimental: as §1

Oc1ccc(-c2nc(C(F)(F)F)cs2)cc1O [Compound 1, 4-(4-(trifluoromethyl)thiazol-2-yl)benzene-1,2-diol]
MIC [1]: > 32 µg/mL | Minimum inhibitory concentration (MIC) Sa 23 [1]: >32, >32 μg/mL | MIC [2]: > 32 µg/mL | Minimum inhibitory concentration (MIC) Sa 99 [2]: >32, >32 μg/mL | MIC [3]: > 32 µg/mL | Minimum inhibitory concentration (MIC) Efs 12 [3]: >32, >32 μg/mL

COc1ccc(-c2csc(-c3ccc(O)c(O)c3)n2)cc1 [Compound 7, 4-(4-(4-methoxyphenyl)thiazol-2-yl)benzene-1,2-diol]
MIC [1]: 16 µg/mL (≈ 53.4 µM) | Minimum inhibitory concentration (MIC) Sa 23 [1]: 16, 16 μg/mL | MIC [2]: 32 µg/mL (≈ 107 µM) | Minimum inhibitory concentration (MIC) Sa 99 [2]: 32, 32 μg/mL | MIC [3]: > 32 µg/mL | Minimum inhibitory concentration (MIC) Efs 12 [3]: >32, >32 μg/mL

Oc1ccc(-c2nc(-c3ccncc3)cs2)cc1O [Compound 11, 4-(4-(pyridin-4-yl)thiazol-2-yl)benzene-1,2-diol]
MIC [1]: > 32 µg/mL | Minimum inhibitory concentration (MIC) Sa 23 [1]: >32, >32 μg/mL | MIC [2]: > 32 µg/mL | Minimum inhibitory concentration (MIC) Sa 99 [2]: >32, >32 μg/mL | MIC [3]: > 32 µg/mL | Minimum inhibitory concentration (MIC) Efs 12 [3]: >32, >32 μg/mL

N#Cc1ccc(-c2csc(-c3ccc(O)c(O)c3)n2)cc1 [Compound 12, 4-(2-(3,4-dihydroxyphenyl)thiazol-4-yl)benzonitrile]
MIC [1]: > 32 µg/mL | Minimum inhibitory concentration (MIC) Sa 23 [1]: >32, >32 μg/mL | MIC [2]: > 32 µg/mL | Minimum inhibitory concentration (MIC) Sa 99 [2]: >32, >32 μg/mL | MIC [3]: > 32 µg/mL | Minimum inhibitory concentration (MIC) Efs 12 [3]: >32, >32 μg/mL

O=C(O)c1ccc(-c2csc(-c3ccc(O)c(O)c3)n2)cc1 [Compound 13, 4-(2-(3,4-dihydroxyphenyl)thiazol-4-yl)benzoic acid]
MIC [1]: > 32 µg/mL | Minimum inhibitory concentration (MIC) Sa 23 [1]: >32, >32 μg/mL | MIC [2]: > 32 µg/mL | Minimum inhibitory concentration (MIC) Sa 99 [2]: >32, >32 μg/mL | MIC [3]: > 32 µg/mL | Minimum inhibitory concentration (MIC) Efs 12 [3]: >32, >32 μg/mL

Oc1ccc(-c2nc(-c3ccc(-c4ccccc4)cc3)cs2)cc1O [Compound 15, 4-(4-([1,1′-biphenyl]-4-yl)thiazol-2-yl)benzene-1,2-diol]
MIC [1]: > 32 µg/mL | Minimum inhibitory concentration (MIC) Sa 23 [1]: >32, >32 μg/mL | MIC [2]: > 32 µg/mL | Minimum inhibitory concentration (MIC) Sa 99 [2]: >32, >32 μg/mL | MIC [3]: > 32 µg/mL | Minimum inhibitory concentration (MIC) Efs 12 [3]: >32, >32 μg/mL

NC(=O)c1cc(-c2csc(-c3ccc(O)c(O)c3)n2)ccc1O [Compound 16, 5-(2-(3,4-dihydroxyphenyl)thiazol-4-yl)-2-hydroxybenzamide]
MIC [1]: > 32 µg/mL | Minimum inhibitory concentration (MIC) Sa 23 [1]: >32, >32 μg/mL | MIC [2]: > 32 µg/mL | Minimum inhibitory concentration (MIC) Sa 99 [2]: >32, >32 μg/mL | MIC [3]: > 32 µg/mL | Minimum inhibitory concentration (MIC) Efs 12 [3]: >32, >32 μg/mL

O=c1oc2ccccc2cc1-c1csc(-c2ccc(O)c(O)c2)n1 [Compound 17, 3-(2-(3,4-dihydroxyphenyl)thiazol-4-yl)-2H-chromen-2-one]
MIC [1]: > 32 µg/mL | Minimum inhibitory concentration (MIC) Sa 23 [1]: >32, >32 μg/mL | MIC [2]: 16 µg/mL (≈ 47.4 µM) | Minimum inhibitory concentration (MIC) Sa 99 [2]: 32 µg/mL (≈ 94.9 µM) | MIC [3]: > 32 µg/mL | Minimum inhibitory concentration (MIC) Efs 12 [3]: >32, >32 μg/mL
